Experimental findings from patent US20220016114A1, “Heart Rate Decreasing Agent” (FURUKAWA RESEARCH OFFICE CO., LTD., priority 2018, published 2022) are described below.

“Also recorded” adds a separate entry of the source.

This experiment relates to heart rate of a person. The experiment in a line: Variation in heart rate before and after oral ingestion of orotic acid tablets, at rest and after drinking. Particulars: for Symptoms (4 to 5 hours after orotic acid ingestion): placebo: languor. Type of experiment: in vivo, human. As to the method:
Tablets consisting of orotic acid were orally ingested and the variation in heart rate was measured before and after oral ingestion. The test subject was a person. Although they were told at their medical checkup that their cholesterol was slightly high, they had not taken any medication and had no preexisting condition. Their blood pressure was in the normal range, and they had never been diagnosed with a blood pressure problem in the past. Their heart rate was slightly high at about 89 to 92 beats/min, and rarely fell below 86 beats/min even at rest. Since the heart rate quickly increases due to exercise and tension or the like, the measurement day was spent as much as possible doing desk work and the like, and the measurement was made under stable conditions after sitting on a chair for at least several minutes. They were drinking 2 cans of beer and 2 to 3 double glasses of shochu daily. Their heart rate after drinking was increasing to about 105 to 115 beats/min (120 beats/min in rare cases), and they were feeling drunk and mild palpitation. They were also feeling sleepy on some days. The test subject ingested a tablet containing 200 mg of orotic acid by oral administration, and the measurement of their heart rate was started.

Regarding `O=C(O)c1cc(=O)[nH]c(=O)[nH]1` [Orotic acid, 1,2,3,6-tetrahydro-2,6-dioxo-4-pyrimidinecarboxylic acid], for the setting “conclusion from Table 1, person, 200 mg oral”, the “Overall effect on heart rate and on daily palpitation and fatigue” value is “a decrease in heart rate was clearly observed; also recorded: improved the palpitation and fatigue that were felt on a daily basis”. Moreover, where the note is “person, 200 mg oral”, the “Heart rate after stabilisation (later than 4 hours after ingestion)” value is listed as “in the 70s beats/min to the lower 80s beats/min”, the “Time after ingestion from which heart rate gradually decreased” value is listed as “about 2 hours” and the “Symptoms (4 to 5 hours after orotic acid ingestion)” value was “Clear head; also recorded: No languor”. For the same compound, the “Symptoms (after drinking)” value (person, 200 mg oral, after usual beer and shochu, placebo: slight drunkenness, mild palpitation, drowsiness) is listed as “felt almost no drunkenness or palpitation”. The “Heart rate 1 to 2 hours after drinking” value (person, 200 mg oral, usual amount of beer and shochu after the decrease in heart rate, placebo 105 to 115 beats/min) lay within 85 to 103 beats/min. For the same compound, for the setting “person, 200 mg oral, listed as orotic acid”, the “Symptoms (4 to 5 hours after orotic acid ingestion)” value is “their head was more refreshed and no longer felt lethargic”. In addition, the “Heart rate 4 hours after ingestion” value (person, 200 mg oral, usual heart rate about 89 to 92 beats/min) is given as at most 80 beats/min. The “Heart rate 4 to 5 hours after orotic acid ingestion” value (person, tablet containing 200 mg orotic acid orally, sitting at rest, placebo 88 to 93 beats/min) is reported as 77 to 82 beats/min.
